In US11426397B2, “Piperidinyl- and piperazinyl-substituted heteroaromatic carboxamides as modulators of GPR6” (TAKEDA PHARMACEUTICAL COMPANY LIMITED, priority 2017, dated 2022):

target: T1, GPR6 receptor expressed in CHO-K1 cells (Homo sapiens, UniProt P46095); assay: In vitro inhibition of cAMP (EC50), cell-based HTRF cAMP assay; details: inhibition of constitutive cAMP activity of GPR6 in CHO-K1 cells
T1 construct: expressed in transfected cells
Method: I. In Vitro Inhibition of cAMP (EC50)
This cell based assay measures the ability of test compounds to inhibit the constitutive cAMP activity of GPR6 receptor expressed in CHO-K1 cells. CHO cells are stably expressed with GPR6 receptor, whose expression is controlled by a tetracycline inducible element. The cells were cultured in medium containing F12K, 10% FBS, 1% Penn/Strep, 200 μg/mL Hygromycin. GPR6 receptor expression is induced for 20 hours with 2 μg/mL doxycycline (Sigma D9891) in growth media. After addition of doxycycline, the cells are plated at a density of 450-750 cells per well in 96-well half-volume black tissue culture plates (Costar) and placed in an incubator (37° C., 5% CO2) for 20 hours prior to cAMP assays.
Culture media is removed from the cells and they are washed with 50 μL/well of Ringer's Buffer (MgCl2 0.047 mg/mL, NaH2PO4 0.18 mg/mL, Na2HPO4 0.1 mg/mL, KCl 0.34 mg/mL, NaHCO3 1.26 mg/mL, D-glucose 1.8 mg/mL, NaCl 7 mg/mL; pH=7.4). The test compounds are suspended in DMSO, diluted in Ringer's Buffer containing 0.5% fatty acid free BSA plus 300 μM IBMX, and incubated on the cells for 45 minutes at 37° C. and 5% CO2. After incubation, the cells are conditioned for 10 minutes at room temp with Eu-cAMP tracer solution from a Perkin Elmer Lance HTRF Ultra cAMP assay kit (TRF0263). Then ULight™-anti-cAMP solution from the Lance HTRF kit is added and incubated on a shaker at room temp for 1 hour prior to HTRF detection in a Perkin Elmer Envision plate reader. EC50 curves are generated with a four-parameter logistic equation using GraphPad Prism 5.03.
Table 1 lists biological assay data (in vitro inhibition of cAMP) for some of the compounds shown in the examples, where larger pEC50 values represent higher activity or potency. All of the compounds shown in Table 1 were tested in accordance with a cell-based assay which measures the ability of test compounds to inhibit the constitutive cAMP activity of GPR6 receptor expressed in CHO-K1 cells (reported as pEC50). The assay is described in the specification under the heading “In vitro inhibition of cAMP (EC50).”

T1 sequence (P46095 whole entry): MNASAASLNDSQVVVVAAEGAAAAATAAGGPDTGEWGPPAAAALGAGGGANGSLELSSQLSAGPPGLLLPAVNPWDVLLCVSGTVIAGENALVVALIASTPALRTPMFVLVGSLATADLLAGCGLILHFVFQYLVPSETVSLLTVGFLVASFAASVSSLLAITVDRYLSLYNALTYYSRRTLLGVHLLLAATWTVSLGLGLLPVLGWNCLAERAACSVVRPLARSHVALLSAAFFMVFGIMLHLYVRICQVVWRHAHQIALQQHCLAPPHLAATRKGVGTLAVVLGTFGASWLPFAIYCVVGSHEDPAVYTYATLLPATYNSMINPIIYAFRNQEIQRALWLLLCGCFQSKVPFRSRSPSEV

Going from `COc1ccc(C(C)(C)C)cc1C(=O)Nc1cc(C#N)ccc1N1CCC(Oc2ccc(F)cc2F)CC1` [Example 209, 5-(tert-butyl)-N-(5-cyano-2-(4-(2,4-difluorophenoxy)piperidin-1-yl)phenyl)-2-methoxybenzamide] to `COc1ccc(F)cc1C(=O)Nc1cc(C#N)ccc1N1CCC(Oc2ccc(F)cc2F)CC1` [Example 210, N-(5-cyano-2-(4-(2,4-difluorophenoxy)piperidin-1-yl)phenyl)-5-fluoro-2-methoxybenzamide], the “pEC50, in vitro inhibition of cAMP” value rises from 6.1 to 7.3.

Compared with `Cc1cc(=O)c(C(=O)Nc2cc(C#N)ccc2N2CCC(Oc3ccc(F)cc3F)CC2)cn1C` [Example 24, N-(5-cyano-2-(4-(2,4-difluorophenoxy)piperidin-1-yl)phenyl)-1,6-dimethyl-4-oxo-1,4-dihydropyridine-3-carboxamide], `Cn1cnc(C(=O)Nc2cc(C#N)ccc2N2CCC(Oc3ccc(F)cc3F)CC2)c1` [Example 45, N-(5-cyano-2-(4-(2,4-difluorophenoxy)piperidin-1-yl)phenyl)-1-methyl-1H-imidazole-4-carboxamide] is higher in “pEC50, in vitro inhibition of cAMP” value: 6.2 for the first, 6.6 for the second.

Compared with `COc1ccc(CN2CCN(c3ncc(C#N)cc3NC(=O)c3cn(C)nc3OC)CC2)c(F)c1` [Example 152, N-(5-cyano-2-(4-(2-fluoro-4-methoxybenzyl)piperazin-1-yl)pyridin-3-yl)-3-methoxy-1-methyl-1H-pyrazole-4-carboxamide], `COc1ccc(CN2CCN(c3ncc(C#N)cc3NC(=O)c3cn(C)nc3OC)CC2)cc1F` [Example 168, N-(5-cyano-2-(4-(3-fluoro-4-methoxybenzyl)piperazin-1-yl)pyridin-3-yl)-3-methoxy-1-methyl-1H-pyrazole-4-carboxamide] is lower in “pEC50, in vitro inhibition of cAMP” value: 7.1 for the first, 6.4 for the second.

First: CCNC(=O)c1cc(N2CCC(Oc3ccc(F)cc3F)CC2)c(NC(=O)c2cccnc2OC)cn1 [Example 252, 4-(4-(2,4-difluorophenoxy)piperidin-1-yl)-N-ethyl-5-(2-methoxynicotinamido)picolinamide]
Second: COc1ncccc1C(=O)Nc1cnc(C(=O)N[C@@H]2CCOC2)cc1N1CCC(Oc2ccc(F)cc2F)CC1 [Example 251, (R)-4-(4-(2,4-difluorophenoxy)piperidin-1-yl)-5-(2-methoxynicotinamido)-N-(tetrahydrofuran-3-yl)picolinamide]
The “pEC50, in vitro inhibition of cAMP” value of the first is higher: 7.0 for the first, 6.8 for the second.

Going from `CCOc1c(C(=O)Nc2cc(C#N)cnc2N2CCC(Oc3ccc(F)cc3F)CC2)cnn1C` [Example 121, N-(5-cyano-2-(4-(2,4-difluorophenoxy)piperidin-1-yl)pyridin-3-yl)-5-ethoxy-1-methyl-1H-pyrazole-4-carboxamide] to `Cc1cccc(C(=O)Nc2cc(C#N)cnc2N2CCC(Oc3ccc(F)cc3F)CC2)n1` [Example 54, N-(5-cyano-2-(4-(2,4-difluorophenoxy)piperidin-1-yl)pyridin-3-yl)-6-methylpicolinamide], the “pEC50, in vitro inhibition of cAMP” value rises from 6.7 to 7.4.

`COc1ncc(F)cc1C(=O)Nc1cnc(C(=O)N(C)C)cc1N1CCC(Oc2ccc(F)cc2F)CC1` [Example 32] and `COc1ncccc1C(=O)Nc1cc(CNC(C)=O)cnc1N1CCC(Oc2ccc(F)cc2F)CC1` [Example 64, N-(5-(acetamidomethyl)-2-(4-(2,4-difluorophenoxy)piperidin-1-yl)pyridin-3-yl)-2-methoxynicotinamide] are the same in “pEC50, in vitro inhibition of cAMP” value: 7.0 for the first, 7.0 for the second.

Compared with `COc1ncccc1C(=O)Nc1cc(C#N)nnc1N1CCC(Oc2ccc(F)cc2F)CC1` [Example 282, N-(6-cyano-3-(4-(2,4-difluorophenoxy)piperidin-1-yl)pyridazin-4-yl)-2-methoxynicotinamide], `COc1ncccc1C(=O)Nc1cc(CO)cnc1N1CCC(Oc2ccc(F)cc2F)CC1` [Example 34, N-(2-(4-(2,4-difluorophenoxy)piperidin-1-yl)-5-(hydroxymethyl)pyridin-3-yl)-2-methoxynicotinamide] is lower in “pEC50, in vitro inhibition of cAMP” value: 7.2 for the first, 7.0 for the second.

`COc1ccc(CN2CCN(c3ncc(C#N)cc3NC(=O)c3cn(C)nc3OC)CC2)cc1` [Example 157, N-(5-cyano-2-(4-(4-methoxybenzyl)piperazin-1-yl)pyridin-3-yl)-3-methoxy-1-methyl-1H-pyrazole-4-carboxamide] and `COc1nn(C)cc1C(=O)Nc1cc(C#N)cnc1N1CCN(Cc2ccccc2OC(F)F)CC1` [Example 163, N-(5-cyano-2-(4-(2-(difluoromethoxy)benzyl)piperazin-1-yl)pyridin-3-yl)-3-methoxy-1-methyl-1H-pyrazole-4-carboxamide] are the same in “pEC50, in vitro inhibition of cAMP” value: 6.7 for the first, 6.7 for the second.

`COc1ccncc1C(=O)Nc1cc(C)cnc1N1CCC(Oc2ccc(F)cc2F)CC1` [Example 35, N-(2-(4-(2,4-difluorophenoxy)piperidin-1-yl)-5-methylpyridin-3-yl)-4-methoxynicotinamide] and `COc1ccncc1C(=O)Nc1ccc(C)nc1N1CCC(Oc2ccc(F)cc2F)CC1` [Example 62, N-(2-(4-(2,4-difluorophenoxy)piperidin-1-yl)-6-methylpyridin-3-yl)-4-methoxynicotinamide] are within 0.2 log units of each other in “pEC50, in vitro inhibition of cAMP” value: 7.4 for the first, 7.3 for the second.

`N#Cc1ccc(N2CCC(Oc3ccc(F)cc3F)CC2)c(NC(=O)c2cccnn2)c1` [Example 126, N-(5-cyano-2-(4-(2,4-difluorophenoxy)piperidin-1-yl)phenyl)pyridazine-3-carboxamide] and `N#Cc1ccc(N2CCC(Oc3ccc(F)cc3F)CC2)c(NC(=O)c2ccc(O)nn2)c1` [Example 52, N-(5-cyano-2-(4-(2,4-difluorophenoxy)piperidin-1-yl)phenyl)-6-hydroxypyridazine-3-carboxamide] are within 0.2 log units of each other in “pEC50, in vitro inhibition of cAMP” value: 6.3 for the first, 6.2 for the second.

Going from `COc1ncccc1C(=O)Nc1cc(C#N)ccc1N1CCN(Cc2cscn2)CC1` [Example 241, N-(5-cyano-2-(4-(thiazol-4-ylmethyl)piperazin-1-yl)phenyl)-2-methoxynicotinamide] to `COc1ccc(C(=O)N2CCN(c3ccc(C#N)cc3NC(=O)c3cccnc3OC)CC2)c(F)c1` [Example 284, N-(5-cyano-2-(4-(2-fluoro-4-methoxybenzoyl)piperazin-1-yl)phenyl)-2-methoxynicotinamide], the “pEC50, in vitro inhibition of cAMP” value rises from 6.0 to 6.6.

Going from `COc1nccc(Cl)c1C(=O)Nc1cc(C#N)ccc1N1CCC(Oc2ccc(F)cc2F)CC1` [Example 223, 4-chloro-N-(5-cyano-2-(4-(2,4-difluorophenoxy)piperidin-1-yl)phenyl)-2-methoxynicotinamide] to `COc1cc(F)c(F)cc1C(=O)Nc1cc(C#N)ccc1N1CCC(Oc2ccc(F)cc2F)CC1` [Example 229], the “pEC50, in vitro inhibition of cAMP” value rises from 5.6 to 7.3.

First: COc1cccc(S(=O)(=O)C2CCN(c3ccc(C#N)cc3NC(=O)c3cn(C)nc3OC)CC2)c1 [Example 98, N-(5-cyano-2-(4-((3-methoxyphenyl)sulfonyl)piperidin-1-yl)phenyl)-3-methoxy-1-methyl-1H-pyrazole-4-carboxamide]
Second: COc1ccc(CC2CCN(c3ccc(C#N)cc3NC(=O)c3cccn(C)c3=O)CC2)c(F)c1 [Example 90, N-(5-cyano-2-(4-(2-fluoro-4-methoxybenzyl)piperidin-1-yl)phenyl)-1-methyl-2-oxo-1,2-dihydropyridine-3-carboxamide]
The “pEC50, in vitro inhibition of cAMP” value of the first is lower: 6.4 for the first, 7.2 for the second.

`CS(=O)(=O)c1ccc(N2CCC(Oc3ccc(F)cc3F)CC2)c(NC(=O)c2cnn3c2OCCCC3)c1` [Example 38, N-(2-(4-(2,4-difluorophenoxy)piperidin-1-yl)-5-(methylsulfonyl)phenyl)-5,6,7,8-tetrahydropyrazolo[5,1-b][1,3]oxazepine-3-carboxamide] and `CCn1nc(C(=O)Nc2cc(C#N)ccc2N2CCC(Oc3ccc(F)cc3F)CC2)cc1C` [Example 143, N-(5-cyano-2-(4-(2,4-difluorophenoxy)piperidin-1-yl)phenyl)-1-ethyl-5-methyl-1H-pyrazole-3-carboxamide] are the same in “pEC50, in vitro inhibition of cAMP” value: 6.8 for the first, 6.8 for the second.

With `COc1c(C(=O)Nc2ccc(C)nc2N2CCN(Cc3ccc(F)cc3)CC2)cnn1C` [Example 103, N-(2-(4-(4-fluorobenzyl)piperazin-1-yl)-6-methylpyridin-3-yl)-5-methoxy-1-methyl-1H-pyrazole-4-carboxamide] the “pEC50, in vitro inhibition of cAMP” value was 6.5.

same assay, conditions: inhibition of constitutive cAMP activity of GPR6 in CHO-K1 cells; read-out: pEC50, in vitro inhibition of cAMP (converted)

`N#Cc1cnc(N2CCC(Cc3ccccc3)CC2)c(NC(=O)c2ccccn2)c1` [Example 67, N-(2-(4-benzylpiperidin-1-yl)-5-cyanopyridin-3-yl)picolinamide] gave an EC50 of 100 nM.
